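Protocol summary: plate cells (96-well), add compound at 5 concentrations, incubate 48 h, interpolate endpoints linearly. Definition used: TGI = concentration required for complete inhibition of growth.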
Experiments:
Experiment in all cases: NCI tumour cell line growth inhibition, 48 h
[1] = tested on: KM20L2 colon
[2] = tested on: SF-268 CNS
[3] = tested on: UACC-257 melanoma
[4] = tested on: SK-MEL-5 melanoma
[5] = tested on: CAKI-1 renal
[6] = tested on: K-562 leukemia
[7] = tested on: NCI-H23 lung
[8] = tested on: MDA-MB-231 breast
[9] = tested on: OVCAR-8 ovarian
[10] = tested on: OVCAR-3 ovarian
[11] = tested on: XF 498 CNS
[12] = tested on: HL-60(TB) leukemia
[13] = tested on: SK-MEL-2 melanoma
[14] = tested on: MDA-MB-435
[15] = tested on: NCI-H522 lung
[16] = tested on: RPMI-8226 leukemia
[17] = tested on: 786-0 renal
[18] = tested on: HT29 colon
[19] = tested on: DLD-1 colon
[20] = tested on: SF-295 CNS
[21] = tested on: SNB-19 CNS
[22] = tested on: COLO 205 colon
[23] = tested on: CCRF-CEM leukemia
[24] = tested on: KM12 colon
[25] = tested on: HOP-18 NSCLC
[26] = tested on: HCT-15 colon
[27] = tested on: T-47D breast
[28] = tested on: BT-549 breast
[29] = tested on: SNB-75 CNS
[30] = tested on: EKVX NSCLC
[31] = tested on: SK-OV-3 ovarian
[32] = tested on: OVCAR-4 ovarian
[33] = tested on: M19-MEL melanoma
[34] = tested on: SF-539 CNS
[35] = tested on: HS 578T breast
[36] = tested on: A549 NSCLC
[37] = tested on: HCT-116 colon
[38] = tested on: UO-31 renal
[39] = tested on: SW-620 colon
[40] = tested on: SN12C renal
[41] = tested on: MDA-N
[42] = tested on: SR leukemia
[43] = tested on: MCF7 breast
[44] = tested on: RXF 393 renal
[45] = tested on: LOX IMVI melanoma
[46] = tested on: UACC-62 melanoma
[47] = tested on: M14 melanoma
[48] = tested on: TK-10 renal
[49] = tested on: A498 renal
[50] = tested on: LXFL 529 NSCLC
[51] = tested on: HOP-62 NSCLC
[52] = tested on: DMS 273 small cell lung
[53] = tested on: NCI-H460 lung
[54] = tested on: OVCAR-5 ovarian
[55] = tested on: HCC-2998 colon
[56] = tested on: SK-MEL-28 melanoma
[57] = tested on: ACHN renal
[58] = tested on: PC-3 prostate
[59] = tested on: MOLT-4 leukemia
[60] = tested on: NCI-H226 lung
[61] = tested on: IGROV1 ovarian
[62] = tested on: DMS 114 small cell lung
[63] = tested on: U251 CNS
[64] = tested on: HOP-92 NSCLC
[65] = tested on: MALME-3M melanoma

CC1=C(C(=O)Nc2ccccc2)C(c2ccc(C3C(C(=O)Nc4ccccc4)=C(C)NC(C)=C3C(=O)Nc3ccccc3)cc2)C(C(=O)Nc2ccccc2)=C(C)N1
TGI [1]: 4.94 µM
TGI [2]: 5.7 µM
TGI [3]: 5.06 µM
TGI [4]: 6.22 µM
TGI [5]: 14.4 µM
TGI [6]: > 53 µM
TGI [7]: 8.65 µM
TGI [8]: 13.4 µM
TGI [9]: 11.2 µM
TGI [10]: 14.5 µM
TGI [11]: 20.5 µM
TGI [12]: 7.21 µM
TGI [13]: 5.06 µM
TGI [14]: 5.83 µM
TGI [15]: 3.14 µM
TGI [16]: 13.8 µM
TGI [17]: 8.92 µM
TGI [18]: 3.77 µM
TGI [19]: 8.15 µM
TGI [20]: 7.88 µM
TGI [21]: 20.5 µM
TGI [22]: 10.6 µM
TGI [23]: 12 µM
TGI [24]: 5.01 µM
TGI [25]: 21.7 µM
TGI [26]: 9 µM
TGI [27]: 16.2 µM
TGI [28]: 8.67 µM
TGI [29]: 23.7 µM
TGI [30]: 10.6 µM
TGI [31]: 26.2 µM
TGI [32]: 16.1 µM
TGI [33]: 22 µM
TGI [34]: 5.97 µM
TGI [35]: 16.2 µM
TGI [36]: 21.8 µM
TGI [37]: 4.52 µM
TGI [38]: 23.1 µM
TGI [39]: 5.56 µM
TGI [40]: 4.71 µM
TGI [41]: 14.5 µM
TGI [42]: 5.41 µM
TGI [43]: 14.7 µM
TGI [44]: 3.87 µM
TGI [45]: 3.24 µM
TGI [46]: 4.09 µM
TGI [47]: 6.46 µM
TGI [48]: 18.3 µM
TGI [49]: 24 µM
TGI [50]: 5.34 µM
TGI [51]: 10.6 µM
TGI [52]: 7.24 µM
TGI [53]: 8.29 µM
TGI [54]: 17.6 µM
TGI [55]: 5.74 µM
TGI [56]: 3.64 µM
TGI [57]: 4.2 µM
TGI [58]: 12.5 µM
TGI [59]: 11.6 µM
TGI [60]: 16 µM
TGI [61]: 6.94 µM
TGI [62]: 17.8 µM
TGI [63]: 3 µM
TGI [64]: 9.78 µM
TGI [65]: 4.33 µM
